Results reported in PubChem BioAssay (NCI).
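How tested: cells in 96-well plates exposed to compound for 48 hours at five concentrations. TGI: concentration producing complete growth inhibition.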

Tests used:
Assay in all cases: DTP human tumour cell line panel, 48 h
K-562 leukemia = system: K-562 leukemia
UACC-62 melanoma = system: UACC-62 melanoma
DMS 273 small cell lung = system: DMS 273 small cell lung
SNB-75 CNS = system: SNB-75 CNS
NCI-H226 lung = system: NCI-H226 lung
SK-MEL-2 melanoma = system: SK-MEL-2 melanoma
IGROV1 ovarian = system: IGROV1 ovarian
HT29 colon = system: HT29 colon
UO-31 renal = system: UO-31 renal
KM12 colon = system: KM12 colon
COLO 205 colon = system: COLO 205 colon
NCI-H522 lung = system: NCI-H522 lung
HL-60(TB) leukemia = system: HL-60(TB) leukemia
HOP-92 NSCLC = system: HOP-92 NSCLC
CCRF-CEM leukemia = system: CCRF-CEM leukemia
HOP-18 NSCLC = system: HOP-18 NSCLC
OVCAR-8 ovarian = system: OVCAR-8 ovarian
RPMI-8226 leukemia = system: RPMI-8226 leukemia
NCI-H23 lung = system: NCI-H23 lung
SF-268 CNS = system: SF-268 CNS
U251 CNS = system: U251 CNS
MOLT-4 leukemia = system: MOLT-4 leukemia
SF-539 CNS = system: SF-539 CNS
786-0 renal = system: 786-0 renal
OVCAR-4 ovarian = system: OVCAR-4 ovarian
NCI-H460 lung = system: NCI-H460 lung
HCT-116 colon = system: HCT-116 colon
SK-MEL-28 melanoma = system: SK-MEL-28 melanoma
MALME-3M melanoma = system: MALME-3M melanoma
HOP-62 NSCLC = system: HOP-62 NSCLC
HCT-15 colon = system: HCT-15 colon
SF-295 CNS = system: SF-295 CNS
SNB-19 CNS = system: SNB-19 CNS
OVCAR-3 ovarian = system: OVCAR-3 ovarian
A549 NSCLC = system: A549 NSCLC
RXF-631 renal = system: RXF-631 renal
SW-620 colon = system: SW-620 colon
CAKI-1 renal = system: CAKI-1 renal
ACHN renal = system: ACHN renal
LXFL 529 NSCLC = system: LXFL 529 NSCLC
SN12C renal = system: SN12C renal
HCC-2998 colon = system: HCC-2998 colon
SR leukemia = system: SR leukemia
DMS 114 small cell lung = system: DMS 114 small cell lung
EKVX NSCLC = system: EKVX NSCLC
UACC-257 melanoma = system: UACC-257 melanoma
KM20L2 colon = system: KM20L2 colon
DLD-1 colon = system: DLD-1 colon
M14 melanoma = system: M14 melanoma
SNB-78 CNS = system: SNB-78 CNS
TK-10 renal = system: TK-10 renal
M19-MEL melanoma = system: M19-MEL melanoma
XF 498 CNS = system: XF 498 CNS
SK-MEL-5 melanoma = system: SK-MEL-5 melanoma
RXF 393 renal = system: RXF 393 renal
LOX IMVI melanoma = system: LOX IMVI melanoma
SK-OV-3 ovarian = system: SK-OV-3 ovarian
A498 renal = system: A498 renal
OVCAR-5 ovarian = system: OVCAR-5 ovarian

CC(=O)NC(CCCCN(Cc1ccccc1)C(=O)NCCCl)C(=O)NCc1ccccc1 (stereo unspecified)
TGI (K-562 leukemia): > 100 µM
TGI (UACC-62 melanoma): > 100 µM
TGI (DMS 273 small cell lung): > 100 µM
TGI (SNB-75 CNS): > 100 µM
TGI (NCI-H226 lung): > 100 µM
TGI (SK-MEL-2 melanoma): > 100 µM
TGI (IGROV1 ovarian): > 100 µM
TGI (HT29 colon): > 100 µM
TGI (UO-31 renal): > 100 µM
TGI (KM12 colon): > 100 µM
TGI (COLO 205 colon): > 100 µM
TGI (NCI-H522 lung): > 100 µM
TGI (HL-60(TB) leukemia): > 100 µM
TGI (HOP-92 NSCLC): > 100 µM
TGI (CCRF-CEM leukemia): > 100 µM
TGI (HOP-18 NSCLC): > 100 µM
TGI (OVCAR-8 ovarian): > 100 µM
TGI (RPMI-8226 leukemia): > 100 µM
TGI (NCI-H23 lung): > 100 µM
TGI (SF-268 CNS): > 100 µM
TGI (U251 CNS): > 100 µM
TGI (MOLT-4 leukemia): > 100 µM
TGI (SF-539 CNS): > 100 µM
TGI (786-0 renal): > 100 µM
TGI (OVCAR-4 ovarian): > 100 µM
TGI (NCI-H460 lung): > 100 µM
TGI (HCT-116 colon): > 100 µM
TGI (SK-MEL-28 melanoma): > 100 µM
TGI (MALME-3M melanoma): > 100 µM
TGI (HOP-62 NSCLC): > 100 µM
TGI (HCT-15 colon): > 100 µM
TGI (SF-295 CNS): > 100 µM
TGI (SNB-19 CNS): > 100 µM
TGI (OVCAR-3 ovarian): > 100 µM
TGI (A549 NSCLC): > 100 µM
TGI (RXF-631 renal): > 100 µM
TGI (SW-620 colon): > 100 µM
TGI (CAKI-1 renal): > 100 µM
TGI (ACHN renal): > 100 µM
TGI (LXFL 529 NSCLC): > 100 µM
TGI (SN12C renal): > 100 µM
TGI (HCC-2998 colon): > 100 µM
TGI (SR leukemia): > 100 µM
TGI (DMS 114 small cell lung): > 100 µM
TGI (EKVX NSCLC): > 100 µM
TGI (UACC-257 melanoma): > 100 µM
TGI (KM20L2 colon): > 100 µM
TGI (DLD-1 colon): > 100 µM
TGI (M14 melanoma): > 100 µM

COc1c(C)c2c(c3c1c(=O)c1ccccc1n3C)C=CC(C)(C)O2
TGI (K-562 leukemia): 66 µM
TGI (UACC-62 melanoma): 33.4 µM
TGI (DMS 273 small cell lung): 38 µM
TGI (SNB-75 CNS): 62.8 µM
TGI (SNB-78 CNS): 72.9 µM
TGI (NCI-H226 lung): > 100 µM
TGI (SK-MEL-2 melanoma): 48.3 µM
TGI (TK-10 renal): > 100 µM
TGI (IGROV1 ovarian): > 100 µM
TGI (HT29 colon): 81.5 µM
TGI (UO-31 renal): 66 µM
TGI (KM12 colon): 60.9 µM
TGI (COLO 205 colon): 99.1 µM
TGI (NCI-H522 lung): 67.3 µM
TGI (HL-60(TB) leukemia): 30.2 µM
TGI (M19-MEL melanoma): 82.4 µM
TGI (HOP-92 NSCLC): 88.8 µM
TGI (CCRF-CEM leukemia): 83.9 µM
TGI (HOP-18 NSCLC): 97.8 µM
TGI (OVCAR-8 ovarian): 91.5 µM
TGI (RPMI-8226 leukemia): 76.8 µM
TGI (NCI-H23 lung): > 100 µM
TGI (XF 498 CNS): 55.7 µM
TGI (SF-268 CNS): 91.4 µM
TGI (U251 CNS): 53.8 µM
TGI (MOLT-4 leukemia): 67.8 µM
TGI (SF-539 CNS): 44.9 µM
TGI (SK-MEL-5 melanoma): 31.1 µM
TGI (786-0 renal): 69.8 µM
TGI (NCI-H460 lung): 62 µM
TGI (HCT-116 colon): 44.8 µM
TGI (SK-MEL-28 melanoma): 55.1 µM
TGI (MALME-3M melanoma): 56.7 µM
TGI (HOP-62 NSCLC): 85.8 µM
TGI (RXF 393 renal): > 100 µM
TGI (HCT-15 colon): > 100 µM
TGI (SF-295 CNS): 45.8 µM
TGI (SNB-19 CNS): > 100 µM
TGI (LOX IMVI melanoma): 32.9 µM
TGI (SK-OV-3 ovarian): 43.1 µM
TGI (OVCAR-3 ovarian): 41 µM
TGI (A498 renal): 73.4 µM
TGI (A549 NSCLC): 26.7 µM
TGI (OVCAR-5 ovarian): 87.6 µM
TGI (SW-620 colon): > 100 µM
TGI (CAKI-1 renal): 82.9 µM
TGI (ACHN renal): 56.3 µM
TGI (LXFL 529 NSCLC): 94.4 µM
TGI (SN12C renal): > 100 µM
TGI (HCC-2998 colon): 95.6 µM
TGI (SR leukemia): 58.6 µM
TGI (DMS 114 small cell lung): 43 µM
TGI (EKVX NSCLC): > 100 µM
TGI (UACC-257 melanoma): 76.6 µM
TGI (KM20L2 colon): > 100 µM
TGI (DLD-1 colon): > 100 µM
TGI (M14 melanoma): 37.9 µM
